{"source": "patent US20040077607A1", "about": "(priority 2002, published 2004)", "key": {"[1]": {"details": "simulated intestinal fluid, 100 μM, 37° C."}, "[2]": {"details": "37° C."}, "in vivo [3]": {"test": "in vivo", "details": "female, Balb/c, mouse, po, 100 mg/kg, Balb/c mice, plasma; for AUC / Cmax / Tmax: after oral 100 mg/kg d4T-5′-[p-bromophenyl methoxyalaninyl phosphate]; for half-life: t1/2, after oral 100 mg/kg d4T-5′-[p-bromophenyl methoxyalaninyl phosphate]"}, "in vivo [4]": {"test": "in vivo", "details": "female, Balb/c, mouse, iv, 75 mg/kg, Balb/c mice, plasma; for AUC / clearance / Cmax / Vd: after i.v. 75 mg/kg Ala-d4T-MP; for clearance: CL; for Vd: Vss; for half-life: t1/2, after i.v. 75 mg/kg Ala-d4T-MP"}, "[5]": {"test": "not given", "remark": "listed apart in the source"}, "in vivo [6]": {"test": "in vivo", "details": "female, Balb/c, mouse, iv, 100 mg/kg"}, "[7]": {"details": "after i.v. 40 mg/kg d4T, Balb/c mice, plasma; mean ± S.E.M. (in parentheses)"}, "[8]": {"details": "after oral 100 mg/kg d4T-5′-[p-bromophenyl methoxyalaninyl phosphate], Balb/c mice, plasma; mean ± S.E.M. (in parentheses)"}, "[9]": {"details": "100 μM, mouse liver homogenate"}, "[10]": {"test_system": "Josiach strain of Lassa Virus", "set-up": "species or system CBA mice", "details": "mouse, in vivo"}, "[11]": {"details": "dog, in vivo; cited from earlier work"}, "[12]": {"details": "for mean percent hydrolysis in plasma: 250 μM"}, "[13]": {"details": "in vivo; cited from earlier work"}, "[14]": {"details": "female, Balb/c, mouse, in vivo, iv"}, "[15]": {"details": "mouse, in vivo; cited from earlier work"}, "[16]": {"details": "rat, in vivo; cited from earlier work"}, "[17]": {"details": "estimate from composite pooled data"}, "[18]": {"details": "model fit after i.v. 75 mg/kg Ala-d4T-MP, C.V. of modeling in parentheses, 75 mg/kg"}}, "note": "Values joined by “and” are separate entries in the source; they are usually repeats but may differ in a detail not shown here. Equal values may be shown once. Read-outs that look alike come from different tables or passages of the source.", "data": [{"smiles": "Cc1cn([C@H]2C=C[C@@H](COP(=O)(O)N[C@@H](C)C(=O)O)O2)c(=O)[nH]c1=O", "note": "[Ala-d4T-MP, alaninyl-d4T-monophosphate]", "values": [{"measurement": "stability in intestinal fluid", "setting": "[1]", "value": "stable"}, {"measurement": "stability in whole blood", "setting": "[2]; 100 μM, for 1 day", "value": "stable"}, {"measurement": "stability in plasma", "setting": "100 μM, for 1 day", "value": "stable"}, {"measurement": "AUC", "setting": "in vivo [3]; [17]", "value": 22.5, "unit": "µM·h"}, {"measurement": "AUC", "setting": "in vivo [3]; mean ± S.E.M. (in parentheses)", "value": 22.6, "unit": "µM·h"}, {"measurement": "Cmax", "setting": "in vivo [3]; [17]", "value": 12.7, "unit": "µM"}, {"measurement": "Cmax", "setting": "in vivo [3]; mean ± S.E.M. (in parentheses)", "value": 15.6, "unit": "µM"}, {"measurement": "half-life", "setting": "in vivo [3]; [17]", "value": 66.4, "unit": "min"}, {"measurement": "half-life", "setting": "in vivo [3]; mean ± S.E.M. (in parentheses)", "value": 56.1, "unit": "min"}, {"measurement": "Tmax", "setting": "in vivo [3]; [17]", "value": 10.3, "unit": "min"}, {"measurement": "Tmax", "setting": "in vivo [3]; mean ± S.E.M. (in parentheses)", "value": 9.3, "unit": "min"}, {"measurement": "AUC", "setting": "in vivo [4]; [17]", "value": 194, "unit": "µM·h"}, {"measurement": "AUC", "setting": "in vivo [4]; mean ± S.E.M. (in parentheses)", "value": 196, "unit": "µM·h"}, {"measurement": "clearance", "setting": "in vivo [4]; [17]", "value": 15.8, "unit": "mL/min/kg"}, {"measurement": "clearance", "setting": "in vivo [4]; mean ± S.E.M. (in parentheses)", "value": 15.7, "unit": "mL/min/kg"}, {"measurement": "Cmax", "setting": "in vivo [4]; [17]", "value": 1210, "unit": "µM"}, {"measurement": "Cmax", "setting": "in vivo [4]; mean ± S.E.M. (in parentheses)", "value": 1660, "unit": "µM"}, {"measurement": "Vd", "setting": "in vivo [4]; [17]", "value": 0.276, "unit": "L/kg"}, {"measurement": "Vd", "setting": "in vivo [4]; mean ± S.E.M. (in parentheses)", "value": 0.413, "unit": "L/kg"}, {"measurement": "half-life", "setting": "in vivo [4]; [17]", "value": 28.5, "unit": "min"}, {"measurement": "half-life", "setting": "in vivo [4]; mean ± S.E.M. (in parentheses)", "value": 91.5, "unit": "min"}, {"measurement": "CLm1 as share of the total systemic clearance", "setting": "[5]; after i.v. 75 mg/kg Ala-d4T-MP", "value": 99, "unit": "%"}, {"measurement": "fraction converted to d4T", "setting": "[5]; after intravenous administration of Ala-d4T-MP", "value": 15, "unit": "%"}, {"measurement": "CLml (metabolic clearance of Ala-d4T-MP / formation clearance of d4T)", "setting": "[5]; [18]", "value": "15.6 ml/min/kg and 15.6 (16.6%) ml/min/kg"}, {"measurement": "CLpd (distribution of Ala-d4T-MP to the extravascular compartment)", "setting": "[5]; [18]", "value": "4.7 ml/min/kg and 4.7 (44.7%) ml/min/kg"}, {"measurement": "AUC", "setting": "in vivo [6]; AUC", "value": 47.6, "unit": "µM·h"}, {"measurement": "Cmax", "setting": "in vivo [6]; Cmax", "value": 67.4, "unit": "µM"}, {"measurement": "half-life", "setting": "in vivo [6]; t1/2", "value": 129, "unit": "min"}, {"measurement": "Tmax", "setting": "in vivo [6]; tmax", "value": 5.9, "unit": "min"}]}, {"smiles": "Cc1cn([C@H]2C=C[C@@H](CO)O2)c(=O)[nH]c1=O", "note": "[d4T, 2′,3′-didehydro-2′,3′-dideoxythymidine]", "values": [{"measurement": "AUC", "setting": "[7]", "value": "(12173.6 ± 559.5) μM · min"}, {"measurement": "AUC", "setting": "[8]", "value": "(5928.4 ± 294.6) μM · min"}, {"measurement": "Cmax", "setting": "[8]", "value": 29.5, "unit": "µM"}, {"measurement": "Tmax", "setting": "[8]", "value": "(45.2 ± 5.2) min"}, {"measurement": "t1/2", "setting": "[8]", "value": "(102.6 ± 3.8) min"}, {"measurement": "Tmax", "setting": "[5]; after i.v. 75 mg/kg Ala-d4T-MP, Balb/c mice, plasma, mean ± S.E.M. (in parentheses)", "value": "(5.0 ± 1.2) min"}, {"measurement": "CLme (elimination of d4T derived from Ala-d4T-MP)", "setting": "[5]; [18]", "value": "88.4 ml/min/kg and 88.4 (13.0%) ml/min/kg"}]}, {"smiles": "COC(=O)C(C)NP(=O)(OC[C@@H]1C=C[C@H](n2cc(C)c(=O)[nH]c2=O)O1)Oc1ccc(Br)cc1", "note": "(stereo partly drawn) [d4T-5′-[p-bromophenylmethoxyalaninyl phosphate]]", "values": [{"measurement": "time to decomposition after incubation with liver homogenate", "setting": "[9]", "value": "≤ 30", "unit": "min"}, {"measurement": "median survival", "setting": "[10]", "value": "> 21", "unit": "days"}, {"measurement": "mice remaining healthy beyond the 21-day observation period", "setting": "[10]", "value": 9, "unit": "mice"}, {"measurement": "mice surviving beyond the 21 day observation period", "setting": "[10]", "value": 6, "unit": "mice"}, {"measurement": "probability of survival at 21 days", "setting": "[10]", "value": "75% and 90%"}, {"measurement": "decomposed in intestinal fluid", "setting": "[1]; within 2 hours", "value": "approximately 94%"}, {"measurement": "stability in whole blood", "setting": "[2]; 250 μM", "value": "very unstable"}, {"measurement": "time to complete decomposition in whole blood", "setting": "[2]; 250 μM", "value": "≤ 30", "unit": "min"}, {"measurement": "decomposed in whole blood", "setting": "[2]; 250 μM, 5 minutes", "value": 68, "unit": "%"}, {"measurement": "decomposed in whole blood", "setting": "[2]; 250 μM, 10 minutes", "value": 87, "unit": "%"}, {"measurement": "decomposed in whole blood", "setting": "[2]; 250 μM, 15 minutes", "value": 92, "unit": "%"}, {"measurement": "tolerability", "setting": "[11]", "value": "very well tolerated"}, {"measurement": "mean percent hydrolysis in plasma", "setting": "[12]; EDTA (1 mM; arylesterase), 5 min", "value": 99, "unit": "%"}, {"measurement": "mean percent hydrolysis in plasma", "setting": "[12]; EDTA (1 mM; arylesterase), 10 min", "value": 100, "unit": "%"}, {"measurement": "mean percent hydrolysis in plasma", "setting": "[12]; EDTA (1 mM; arylesterase), 15 min", "value": 100, "unit": "%"}, {"measurement": "mean percent hydrolysis in plasma", "setting": "[12]; EDTA (1 mM; arylesterase), 30 min", "value": 100, "unit": "%"}, {"measurement": "mean percent hydrolysis in plasma", "setting": "[12]; EDTA (1 mM; arylesterase), 60 min", "value": 100, "unit": "%"}, {"measurement": "mean percent hydrolysis in plasma", "setting": "[12]; EDTA (1 mM; arylesterase), 120 min", "value": 100, "unit": "%"}, {"measurement": "decomposition in plasma, effect of EDTA", "setting": "[12]; EDTA, 37° C.", "value": "not affected"}, {"measurement": "mean percent hydrolysis in plasma", "setting": "[12]; No inhibitor, 5 min", "value": 95, "unit": "%"}, {"measurement": "mean percent hydrolysis in plasma", "setting": "[12]; No inhibitor, 10 min", "value": 98, "unit": "%"}, {"measurement": "mean percent hydrolysis in plasma", "setting": "[12]; No inhibitor, 15 min", "value": 99, "unit": "%"}, {"measurement": "mean percent hydrolysis in plasma", "setting": "[12]; No inhibitor, 30 min", "value": 100, "unit": "%"}, {"measurement": "mean percent hydrolysis in plasma", "setting": "[12]; No inhibitor, 60 min", "value": 100, "unit": "%"}, {"measurement": "mean percent hydrolysis in plasma", "setting": "[12]; No inhibitor, 120 min", "value": 100, "unit": "%"}, {"measurement": "mean percent hydrolysis in plasma", "setting": "[12]; Physostigmine (0.1 mM; cholinesterase), 5 min", "value": 43, "unit": "%"}, {"measurement": "mean percent hydrolysis in plasma", "setting": "[12]; Physostigmine (0.1 mM; cholinesterase), 10 min", "value": 65, "unit": "%"}, {"measurement": "mean percent hydrolysis in plasma", "setting": "[12]; Physostigmine (0.1 mM; cholinesterase), 15 min", "value": 76, "unit": "%"}, {"measurement": "mean percent hydrolysis in plasma", "setting": "[12]; Physostigmine (0.1 mM; cholinesterase), 30 min", "value": 89, "unit": "%"}, {"measurement": "mean percent hydrolysis in plasma", "setting": "[12]; Physostigmine (0.1 mM; cholinesterase), 60 min", "value": 100, "unit": "%"}, {"measurement": "mean percent hydrolysis in plasma", "setting": "[12]; Physostigmine (0.1 mM; cholinesterase), 120 min", "value": 100, "unit": "%"}, {"measurement": "decomposition in plasma, effect of physostigmine", "setting": "[12]; physostigmine 0.1 mM, 37° C.", "value": "partially inhibited"}, {"measurement": "stability in plasma", "setting": "250 μM", "value": "very unstable"}, {"measurement": "time to complete decomposition in plasma", "setting": "250 μM", "value": "≤ 30", "unit": "min"}, {"measurement": "decomposed following incubation with plasma", "setting": "250 μM, after 5 minutes", "value": "over 95%"}, {"measurement": "tolerability", "setting": "[13]", "value": "very well tolerated"}, {"measurement": "fraction converted to Ala-d4T-MP", "setting": "[14]", "value": 23, "unit": "%"}, {"measurement": "fraction converted to d4T", "setting": "[14]", "value": 24, "unit": "%"}, {"measurement": "acute or subacute toxicity", "setting": "[15]", "value": "very well tolerated without any detectable acute or subacute toxicity"}, {"measurement": "toxicity on daily administration", "setting": "[15]", "value": "not associated with any detectable toxicity"}, {"measurement": "acute or subacute toxicity", "setting": "[16]", "value": "very well tolerated without any detectable acute or subacute toxicity"}, {"measurement": "toxicity on daily administration", "setting": "[16]", "value": "not associated with any detectable toxicity"}]}]}
